Assay results from ChEMBL document CHEMBL1132746, “Biologically active oligodeoxyribonucleotides. Part 12: N2-methylation of 2'-deoxyguanosines enhances stability of parallel G-quadruplex and anti-HIV-1 activity” (Bioorg Med Chem Lett, 2000).

Tests used:
Conditions in all cases: Homo sapiens
MT4 [1] = experiment: Concentration required to show cytotoxicity for MT-4 cells infected with HIV-1 IIIb strain; format: functional
MT4 [2] = experiment: Tested for cytopathic effect of compound for MT-4 cells infected with HIV-1 IIIb strain relative to R-95288 (1); format: functional, cell-based
MT4 [3] = experiment: Tested for cytopathic effect of compound for MT-4 cells infected with HIV-1 IIIb strain; format: functional, cell-based

| SMILES | CC50 (MT4 [1]) [µM] | IC50 (MT4 [2]) [µM] | IC50 (MT4 [3]) [µM] |
| --- | --- | --- | --- |
| Cc1cn([C@H]2C[C@H](OP(=O)(O)O[C@H]3O[C@@H](n4cnc5c(O)nc(N)nc54)C[C@@H]3OP(=O)(O)OC[C@H]3O[C@@H](n4cnc5c(O)nc(N)nc54)C[C@@H]3OP(=O)(O)OC[C@H]3O[C@@H](n4cnc5c(O)nc(N)nc54)C[C@@H]3OP(=O)(O)O)[C@@H](COCc3ccc(OCc4ccccc4)c(OCc4ccccc4)c3)O2)c(=O)[nH]c1=O | > 40 | 43 | – |
| Cc1cn([C@H]2C[C@H](OP(=O)(O)O[C@H]3O[C@@H](n4cnc5c(=O)[nH]c(N)nc54)C[C@@H]3OP(=O)(O)OC[C@H]3O[C@@H](n4cnc5c(=O)[nH]c(N)nc54)C[C@@H]3OP(=O)(O)OC[C@H]3O[C@@H](n4cnc5c(=O)[nH]c(N)nc54)C[C@@H]3OP(=O)(O)OC[C@H]3O[C@@H](n4cnc5c4N=CNC5N)C[C@@H]3OP(=O)(O)OC[C@H]3O[C@@H](n4cnc5c(=O)[nH]c(N)nc54)C[C@@H]3OP(=O)(O)OCCO)[C@@H](COCc3ccc(OCc4ccccc4)c(OCc4ccccc4)c3)O2)c(=O)[nH]c1=O (some centres undefined) | > 40 | – | 1 |
